Molecular target: T1, ovine COX I (Ovis aries, UniProt P05979)
T1 construct: a ram seminal vesicle preparation enriched in COX I (Biomol) was used; tissue Biomol; host or cells: ram seminal vesicle
T1 sequence (P05979 25-600): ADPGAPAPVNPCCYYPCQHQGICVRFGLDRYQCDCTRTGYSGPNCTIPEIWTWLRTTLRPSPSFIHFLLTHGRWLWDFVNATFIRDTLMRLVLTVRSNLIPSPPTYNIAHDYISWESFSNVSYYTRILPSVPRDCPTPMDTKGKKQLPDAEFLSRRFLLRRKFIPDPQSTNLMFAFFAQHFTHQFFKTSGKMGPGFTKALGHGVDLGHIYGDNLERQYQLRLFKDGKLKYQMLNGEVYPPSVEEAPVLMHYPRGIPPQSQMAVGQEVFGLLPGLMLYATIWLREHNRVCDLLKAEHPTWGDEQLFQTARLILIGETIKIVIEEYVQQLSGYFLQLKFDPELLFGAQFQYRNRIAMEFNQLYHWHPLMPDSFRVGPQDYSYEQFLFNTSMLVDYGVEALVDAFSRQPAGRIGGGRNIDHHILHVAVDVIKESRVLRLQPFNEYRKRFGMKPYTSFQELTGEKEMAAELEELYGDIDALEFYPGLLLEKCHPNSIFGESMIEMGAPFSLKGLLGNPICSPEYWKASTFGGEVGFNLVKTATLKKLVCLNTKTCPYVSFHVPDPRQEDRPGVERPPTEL
Experiment: COX I biochemical assay (ram seminal vesicle preparation)
Method: Both the COX I and COX II assays were performed using modified versions of previously reported methods (Corey, E. J., Shih, C., and Cashman, J. R., 1983 Proc. Natl. Acad. Sci. v80, p3; Sigal, E., Grunberger, D., Cashman, J. R., Craik, C. S., Caughey, G. H., and Nadel, J. A., 1988 Biochem. Biophys. Res Comm. v150(1), p376). To assess for the presence of compounds in the peat bog extracts that were capable of inhibiting COX II, purified human recombinant COX II (Oxford Chemical) was suspended in 50 uL of COX assay buffer (50 mM Tris, pH 8.0) containing 0.2 mM hydroquinone, 5.0 mM tryptophan, 1.0 uM hematin, and 1.0 mM glutathione. […]
The assessment of cyclooxygenase activity (both COX I and II) in the presence and absence of the peat bog extracts was based on the quantitation of tlhe radiolabeled arachidonic acid metabolites prostaglandin A2 (PGA2), PGE2, and PGF2-alpha. […] The bands were visualized by UV-vis or I2 staining and scraped into scintillation vials for quantitation. […] The total enzyme activity (At), the corrected enzyme activity in the presence of an inhibitor (Ai), and % inhibition were calculated by the following equations: […]
The inhibitory activity of dehydroabietic acid methyl ester was assessed by performing biochemical assays that utilized 1) human recombinant COX II, 2) ovine COX I, and 3) rabbit reticulocyte 15-LO. […]

Q: `CC(C)(c1ccccc1)c1ccc(O)cc1` [4-Cumylphenol, 4-cumylphenol] was tested. Which “Percent Inhibition of COX I” value (pure 4-cumylphenol, assay as Example 2B, concentration not given) did it give?
A: 1.6%

Q: With `COC(=O)[C@]1(C)CCC[C@]2(C)c3ccc(C(C)C)cc3CC[C@@H]12` [Dehydroabietic acid methyl ester, dehydroabietic acid methyl ester] as the compound, how does the “Percent Inhibition of COX I” value (final concentration of 250 uM) read?
A: 0.2%

From patent US6365634B1, “Naturally occurring compounds and their derivatives as cyclooxygenase 2 and/or 5-lipoxygenase inhibitors” (C-P Technology Limited Partnership, priority 1997, dated 2002)
